# From PubChem BioAssay (NCI)
#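 Cells were grown in 96-well plates and exposed to each compound for 48 hours at five concentrations; endpoints were interpolated linearly between bracketing concentrations, or set to the highest concentration if not reached. TGI: concentration producing complete growth inhibition.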
# What was measured:
# Assay in all cases: NCI-60 cell line screen, 48 h
# DLD-1 colon = test system: DLD-1 colon
# DMS 114 small cell lung = test system: DMS 114 small cell lung
# DMS 273 small cell lung = test system: DMS 273 small cell lung
# LXFL 529 NSCLC = test system: LXFL 529 NSCLC
# M19-MEL melanoma = test system: M19-MEL melanoma
# HOP-18 NSCLC = test system: HOP-18 NSCLC
# RXF-631 renal = test system: RXF-631 renal
# SNB-78 CNS = test system: SNB-78 CNS
# XF 498 CNS = test system: XF 498 CNS
SMILES,TGI (DLD-1 colon) [µM],TGI (DMS 114 small cell lung) [µM],TGI (DMS 273 small cell lung) [µM],TGI (LXFL 529 NSCLC) [µM],TGI (M19-MEL melanoma) [µM],TGI (HOP-18 NSCLC) [µM],TGI (RXF-631 renal) [µM],TGI (SNB-78 CNS) [µM],TGI (XF 498 CNS) [µM]
CCOC(=O)C(Cc1ccccc1)NC(=O)c1ccc(N=NN(C)C)cc1 (configuration not stated),> 100,> 100,> 100,> 100,> 100,–,–,–,–
O=C1CCCC2=C(N1)C(=O)C=CC2=O,> 100,> 56.5,> 100,> 100,> 100,> 100,> 100,> 100,> 100
CCCN1CN(C(C(=O)N[C@@H]2C(=O)N3C2SC(C)(C)C3C(=O)O)c2ccccc2)CSC1=S (some centres not stated),> 100,94.1,> 100,> 100,> 100,> 100,–,> 100,> 100
CCOc1ccccc1N=Nc1c(-c2ccccc2)nn(C(=O)CC(=O)Nc2cccc(Cl)c2)c1-c1ccccc1,> 100,> 100,> 100,> 100,> 100,> 100,–,> 100,> 100
O=C(NCc1ccccc1)c1cc2cc(O)c(O)cc2cn1,> 100,24,23.2,> 100,77.3,41.4,–,> 100,90.3
COc1ccc(CNC2=C(NC(C)=O)C(=O)c3ccccc3C2=O)cc1,22.8,–,> 50,14.9,17.4,–,–,40.6,–
O=C(O)C(Cc1c[nH]c2ccccc12)N=Cc1nc(-c2ccccc2)oc1O (configuration not stated),> 100,> 100,> 100,> 100,> 100,–,–,> 100,> 100
COC(=O)N/N=C(/CCN1CCCC1)CC(c1ccccc1)c1c(O)c2ccccc2oc1=O (configuration not stated),> 100,–,> 100,> 100,> 100,> 100,–,> 100,> 100
